Experimental data taken from patent publication US10590140B2, “Tetrahydropyrimidodiazepine and dihydropyridodiazepine compounds for treating pain and pain related conditions” (ESTEVE PHARMACEUTICALS, S.A., priority 2016, dated 2020).

These compounds were tested against human α2δ-1 subunit of Cav2.2 calcium channel (Homo sapiens (Human), UniProt P54289) (assay: Binding assay to human α2δ-1 subunit of Cav2.2 calcium channel ([3H]-Gabapentin)). Conditions: Table 2, dual compounds; [3H]-Gabapentin binding; read-out: Ki (nM) α2δ-1.
Outline: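 Radioactivity on dried GF/C filters quantified by scintillation after filtration and three cold Tris-HCl (pH 7.4) washes. Incubation ran 60 min at 27° C with [3H]-gabapentin; 10 μM pregabalin gave nonspecific binding.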

Sequence of human α2δ-1 subunit of Cav2.2 calcium channel (P54289 25-1103): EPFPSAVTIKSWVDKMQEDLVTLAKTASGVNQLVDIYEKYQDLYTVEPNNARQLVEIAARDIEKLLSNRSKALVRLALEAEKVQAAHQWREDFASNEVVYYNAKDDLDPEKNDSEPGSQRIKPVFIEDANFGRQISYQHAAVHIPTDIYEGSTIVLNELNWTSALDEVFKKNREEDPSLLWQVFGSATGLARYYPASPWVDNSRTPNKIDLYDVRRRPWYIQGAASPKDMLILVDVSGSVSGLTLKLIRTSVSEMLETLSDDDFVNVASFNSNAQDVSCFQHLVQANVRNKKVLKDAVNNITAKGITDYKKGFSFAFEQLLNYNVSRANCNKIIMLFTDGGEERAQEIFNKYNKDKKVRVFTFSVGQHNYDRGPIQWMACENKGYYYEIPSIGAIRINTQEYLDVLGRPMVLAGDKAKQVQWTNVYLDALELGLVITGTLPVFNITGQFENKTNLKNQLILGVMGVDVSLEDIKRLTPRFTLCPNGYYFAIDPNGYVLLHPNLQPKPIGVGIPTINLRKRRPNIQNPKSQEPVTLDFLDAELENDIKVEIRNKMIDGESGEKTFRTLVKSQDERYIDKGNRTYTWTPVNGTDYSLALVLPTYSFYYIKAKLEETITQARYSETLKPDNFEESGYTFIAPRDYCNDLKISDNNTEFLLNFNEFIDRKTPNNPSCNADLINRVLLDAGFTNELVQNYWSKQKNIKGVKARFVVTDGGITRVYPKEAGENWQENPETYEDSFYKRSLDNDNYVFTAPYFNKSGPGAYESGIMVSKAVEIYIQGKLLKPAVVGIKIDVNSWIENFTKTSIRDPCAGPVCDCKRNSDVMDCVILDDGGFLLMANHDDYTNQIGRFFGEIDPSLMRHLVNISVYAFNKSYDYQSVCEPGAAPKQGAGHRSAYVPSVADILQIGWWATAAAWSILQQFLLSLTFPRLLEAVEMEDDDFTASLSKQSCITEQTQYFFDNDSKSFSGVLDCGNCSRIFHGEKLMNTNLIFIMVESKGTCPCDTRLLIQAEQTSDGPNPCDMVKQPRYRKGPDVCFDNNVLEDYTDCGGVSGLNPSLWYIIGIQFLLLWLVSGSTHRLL

| Structure (SMILES) | Ki |
| --- | --- |
| CCNc1ncc2c(n1)N(C)CCN(c1cccc(COC(CCNC)c3cccs3)c1)C2=O (stereo not shown) [Example 211, 2-(ethylamino)-9-methyl-6-(3-((3-(methylamino)-1-(thiophen-2-yl)propoxy)methyl)phenyl)-6,7,8,9-tetrahydro-5H-pyrimido[4,5-e][1,4]diazepin-5-one] | 100 to 500 nM |

Same assay, conditions: binding to α2δ-1, [3H]-Gabapentin; read-out: Ki (nM) α2δ-1

| Structure (SMILES) | Ki |
| --- | --- |
| CSc1ncc2c(n1)N(C)CCN(c1cccc(Br)c1)C2=O [Example 35, 6-(3-bromophenyl)-9-methyl-2-(methylthio)-6,7,8,9-tetrahydro-5H-pyrimido[4,5-e][1,4]diazepin-5-one] | > 3000 nM |
| CCN1CCN(c2cccc(-c3nnc(C)o3)c2)C(=O)c2cnc(SC)nc21 [Example 30, 9-ethyl-6-(3-(5-methyl-1,3,4-oxadiazol-2-yl)phenyl)-2-(methylthio)-6,7,8,9-tetrahydro-5H-pyrimido[4,5-e][1,4]diazepin-5-one] | > 3000 nM |
| CSc1ncc2c(n1)N(C)CCN(c1cccc(-n3cc(CNC(=O)OC(C)(C)C)nn3)c1)C2=O [Example 40, tert-butyl ((1-(3-(9-methyl-2-(methylthio)-5-oxo-5,7,8,9-tetrahydro-6H-pyrimido[4,5-e][1,4]diazepin-6-yl)phenyl)-1H-1,2,3-triazol-4-yl)methyl) carbamate] | > 3000 nM |
| CCNc1ncc2c(n1)N(C)CCN(c1cccc(COC(CCNC)c3cccs3)c1)C2=O (stereo not shown) [Example 211, 2-(ethylamino)-9-methyl-6-(3-((3-(methylamino)-1-(thiophen-2-yl)propoxy)methyl)phenyl)-6,7,8,9-tetrahydro-5H-pyrimido[4,5-e][1,4]diazepin-5-one] | 100 to 500 nM |
| CNCC[C@H](OCc1cccc(N2CCN(C)c3nc(N)ncc3C2=O)c1)c1ccccc1 [Example 332, (S)-2-amino-9-methyl-6-(3-((3-(methylamino)-1-phenylpropoxy)methyl)phenyl)-6,7,8,9-tetrahydro-5H-pyrimido[4,5-e][1,4]diazepin-5-one] | > 3000 nM |
| CCNc1ncc2c(n1)N(C)CCN(c1cccc(COC(CCN(C)C(=O)OC(C)(C)C)c3ccccc3)c1)C2=O (stereo not shown) [Example 77, tert-butyl (3-((3-(2-(ethylamino)-9-methyl-5-oxo-5,7,8,9-tetrahydro-6H-pyrimido[4,5-e][1,4]diazepin-6-yl)benzyl)oxy)-3-phenylpropyl)(methyl) carbamate] | > 3000 nM |
| CCNc1ncc2c(n1)N(C)CCN(c1cccc(OC(CCN(C)C(=O)OC(C)(C)C)c3ccccn3)c1)C2=O (stereo not shown) [Example 128, tert-butyl (3-(3-(2-(ethylamino)-9-methyl-5-oxo-5,7,8,9-tetrahydro-6H-pyrimido[4,5-e][1,4]diazepin-6-yl)phenoxy)-3-(pyridin-2-yl)propyl)(methyl) carbamate] | > 3000 nM |
| CN(CCC(OCc1cccc(N2CCN(C)c3nc(O)ncc3C2=O)c1)c1cccs1)C(=O)OC(C)(C)C (stereo not shown) [Example 141, tert-butyl (3-((3-(2-hydroxy-9-methyl-5-oxo-5,7,8,9-tetrahydro-6H-pyrimido[4,5-e][1,4]diazepin-6-yl)benzyl)oxy)-3-(thiophen-2-yl)propyl)(methyl)carbamate] | > 3000 nM |
| CNCCC(Oc1ccc(N2CCN(C)c3ncncc3C2=O)cc1)c1ccccc1 (stereo not shown) [Example 361, 9-methyl-6-(4-(3-(methylamino)-1-phenylpropoxy)phenyl)-6,7,8,9-tetrahydro-5H-pyrimido[4,5-e][1,4]diazepin-5-one] | > 3000 nM |
| CCNc1ncc2c(n1)N(C)CCN(c1cccc(CO[C@H](CCN(C)C(=O)OC(C)(C)C)c3ccccc3)c1)C2 [Example 65, tert-Butyl (R)-(3-((3-(2-(ethylamino)-9-methyl-5,7,8,9-tetrahydro-6H-pyrimido[4,5-e][1,4]diazepin-6-yl)benzyl)oxy)-3-phenylpropyl)(methyl)carbamate] | > 3000 nM |
| CN(CCC(Oc1cccc(N2CCN(C)c3cc(N(C)C)ncc3C2=O)c1)c1cccs1)C(=O)OCC[Si](C)(C)C (stereo not shown) [Example 59, 2-(trimethyl-silyl)ethyl (3-(3-(8-(dimethylamino)-1-methyl-5-oxo-1,2,3,5-tetrahydro-4H-pyrido[4,3-e] [1,4]diazepin-4-yl)phenoxy)-3-(thiophen-2-yl)propyl)(methyl) carbamate] | > 3000 nM |

More lines, now with the values ahead:

| Ki | Structure (SMILES) |
| --- | --- |
| > 3000 nM | CSc1ncc2c(n1)N(C)CCN(c1cccc(CN(C)C(=O)OC(C)(C)C)c1)C2=O [Example 26, tert-butyl methyl(3-(9-methyl-2-(methylthio)-5-oxo-5,7,8,9-tetrahydro-6H-pyrimido[4,5-e][1,4]diazepin-6-yl)benzyl) carbamate] |
| > 3000 nM | CN(CC[C@@H](OCc1cccc(N2CCN(C)c3nc(N(C)C)ncc3C2=O)c1)c1ccccc1)C(=O)OC(C)(C)C [Example 131, tert-butyl (R)-(3-((3-(2-(dimethylamino)-9-methyl-5-oxo-5,7,8,9-tetrahydro-6H-pyrimido[4,5-e][1,4]diazepin-6-yl)benzyl)oxy)-3-phenylpropyl)(methyl) carbamate] |
| > 3000 nM | CCNc1ncc2c(n1)N(C)CCN(c1cccc(-n3cc(CN(C)C(=O)OC(C)(C)C)nn3)c1)C2=O [Example 116, tert-butyl ((1-(3-(2-(ethylamino)-9-methyl-5-oxo-5,7,8,9-tetrahydro-6H-pyrimido[4,5-e][1,4]diazepin-6-yl)phenyl)-1H-1,2,3-triazol-4-yl)methyl)(methyl) carbamate] |
| > 3000 nM | CNCCC(C)OCc1cccc(N2CCN(C)c3nc(SC)ncc3C2=O)c1 (stereo not shown) [Example 192, 9-methyl-6-(3-(((4-(methylamino)butan-2-yl)oxy)methyl)phenyl)-2-(methylthio)-6,7,8,9-tetrahydro-5H-pyrimido[4,5-e][1,4]diazepin-5-one] |
| 100 to 500 nM | CCNc1ncc2c(n1)N(C)CCN(c1cccc(OC3CCNC3)c1)C2=O (stereo not shown) [Example 175, 2-(ethylamino)-9-methyl-6-(3-(pyrrolidin-3-yloxy)phenyl)-6,7,8,9-tetrahydro-5H-pyrimido[4,5-e][1,4]diazepin-5-one] |
| 100 to 500 nM | CCNc1ncc2c(n1)N(C)CCN(c1cccc(C3CCNCC3)c1)C2=O [Example 235, 2-(Ethylamino)-9-methyl-6-(3-(piperidin-4-yl)phenyl)-6,7,8,9-tetrahydro-5H-pyrimido[4,5-e][1,4]diazepin-5-one] |
| > 3000 nM | CCNc1ncc2c(n1)N(C)CCN(c1cccc(CO[C@@H](CCN(C)C(=O)OC(C)(C)C)c3cccs3)c1)C2=O [Example 85, tert-butyl (S)-(3-((3-(2-(ethylamino)-9-methyl-5-oxo-5,7,8,9-tetrahydro-6H-pyrimido[4,5-e][1,4]diazepin-6-yl)benzyl)oxy)-3-(thiophen-2-yl)propyl)(methyl) carbamate] |
| > 3000 nM | CCNc1ncc2c(n1)N(C)CCN(c1cccc(O[C@H](CCN(C)C(=O)OC(C)(C)C)c3cccs3)c1)C2=O [Example 81, tert-butyl (R)-(3-(3-(2-(ethylamino)-9-methyl-5-oxo-5,7,8,9-tetrahydro-6H-pyrimido[4,5-e][1,4]diazepin-6-yl)phenoxy)-3-(thiophen-2-yl)propyl)(methyl) carbamate] |
| > 3000 nM | CSc1ncc2c(n1)N(C)CCN(c1cccc(C(C)(C)CN(C)C(=O)OC(C)(C)C)c1)C2=O [Example 25, tert-butyl methyl(2-methyl-2-(3-(9-methyl-2-(methylthio)-5-oxo-5,7,8,9-tetrahydro-6H-pyrimido[4,5-e][1,4]diazepin-6-yl)phenyl)propyl) carbamate] |
| 500 to 3000 nM | CCNc1ncc2c(n1)N(C)CCN(c1cccc(N3CCC(c4ccccc4)(N(C)C)CC3)c1)C2=O [Example 312, 6-(3-(4-(dimethylamino)-4-phenylpiperidin-1-yl)phenyl)-2-(ethylamino)-9-methyl-6,7,8,9-tetrahydro-5H-pyrimido[4,5-e][1,4]diazepin-5-one] |
